In test [1] the test system is Pituitary gland cell. The experiment in a line: Effect on LH release in rat pituitary cells after 4 hrs. Format: functional, cell-based.
Test [2] can be described thus: Stimulation of ERK phosphorylation in alphaT3-1 cells. It counts as cell-based.

Calls of active or inactive are those of the source. No cut-off for these calls is given here.

This passage reports Activity results from ChEMBL document CHEMBL1155061, “Conjugates of gonadotropin releasing hormone (GnRH) with carminic acid: Synthesis, generation of reactive oxygen species (ROS) and biological evaluation” (Bioorg Med Chem, 2008).

On to `Cc1c(C(=O)NCCC(=O)NCCCC[C@@H](NC(=O)[C@H](Cc2ccc(O)cc2)NC(=O)[C@H](CO)NC(=O)[C@H](Cc2c[nH]c3ccccc23)NC(=O)[C@H](Cc2cnc[nH]2)NC(=O)[C@@H]2CCC(=O)N2)C(=O)N[C@@H](CC(C)C)C(=O)N[C@@H](CCCNC(=N)N)C(=O)N2CCC[C@H]2C(=O)NCC(N)=O)c(O)cc2c1C(=O)c1c(O)c([C@H]3O[C@H](CO)[C@@H](O)[C@H](O)[C@H]3O)c(O)c(O)c1C2=O`, for which the outcome in test [1] and in test [2] was Active.

For the molecule `CC(C)C[C@H](NC(=O)[C@@H](CCCCN)NC(=O)[C@H](Cc1ccc(O)cc1)NC(=O)[C@H](CO)NC(=O)[C@H](Cc1c[nH]c2ccccc12)NC(=O)[C@H](Cc1cnc[nH]1)NC(=O)[C@@H]1CCC(=O)N1)C(=O)N[C@@H](CCCNC(=N)N)C(=O)N1CCC[C@H]1C(=O)NCC(N)=O`, the result in test [1] and in test [2] was Active.
